Laboratory results: patent publication US6399642B2, “Benzimidazole topoisomerase poisons” (Rutgers, The State University of New Jersey, priority 1998, dated 2002)

Biological target: T1, human topoisomerase I (Homo sapiens, UniProt P11387)
T1 construct: unnamed fusion partner (recombinant fusion protein); made in house
T1 sequence (P11387 1-765): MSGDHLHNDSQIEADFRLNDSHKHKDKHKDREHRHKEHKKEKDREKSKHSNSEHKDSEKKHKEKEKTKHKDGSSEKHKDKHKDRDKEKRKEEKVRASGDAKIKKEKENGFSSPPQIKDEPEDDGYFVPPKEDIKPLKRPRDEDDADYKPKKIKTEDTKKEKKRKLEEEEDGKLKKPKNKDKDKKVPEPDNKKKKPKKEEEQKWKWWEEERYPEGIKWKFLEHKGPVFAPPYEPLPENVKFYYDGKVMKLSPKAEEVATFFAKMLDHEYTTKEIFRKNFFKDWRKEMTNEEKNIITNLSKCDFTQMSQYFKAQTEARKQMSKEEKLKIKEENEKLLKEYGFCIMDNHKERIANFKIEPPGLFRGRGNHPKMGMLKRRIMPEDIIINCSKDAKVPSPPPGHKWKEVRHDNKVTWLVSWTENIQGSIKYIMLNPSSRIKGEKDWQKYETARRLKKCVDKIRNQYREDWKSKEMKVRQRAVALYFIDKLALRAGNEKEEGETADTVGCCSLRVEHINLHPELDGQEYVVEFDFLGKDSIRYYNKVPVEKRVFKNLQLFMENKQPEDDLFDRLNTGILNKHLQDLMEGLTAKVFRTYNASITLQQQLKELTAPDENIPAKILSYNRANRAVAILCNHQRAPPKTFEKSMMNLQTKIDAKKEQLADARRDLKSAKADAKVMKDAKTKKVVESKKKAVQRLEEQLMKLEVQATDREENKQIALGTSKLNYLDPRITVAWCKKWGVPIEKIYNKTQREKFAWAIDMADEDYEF
Assay: Test A. Topoisomerase I Cleavage Assay
Format: biochemical
Conditions: concentration relative to compound 5 producing the same cleavage on plasmid DNA in the presence of human topoisomerase I
Protocol: Test A. Topoisomerase I Cleavage Assay.
Representative compounds of the invention were evaluated in a cleavage assay using recombinant topoisomerases I. This assay was preformed as described by B. Gatto et al. Cancer Res., 1996, 56, 2795-2800. Human topoisomerase I was isolated as a recombinant fusion protein using a T7 expression system. Plasmid YEpG was purified by the alkali lysis method followed by phenol deproteination and CsCl/ethidium isopycnic centrifiigation as described by Maniatis, T.; Fritsch, E. F.; Sambrook, J. Molecular Cloning, a Laboratory Manual; Cold Spring Harbor Laboratory: Cold Spring Harbor, N.Y. 1982; pp 149-185. The end-labeling of the plasmid was accomplished by digestion with a restriction enzyme followed by end-filling with Klenow polymerase as previously described by Liu, L. F.; Rowe, T. C.; Yang, L.; Tewey, K. M.; Chen, G. L. “Cleavage of DNA by mammalian topoisomerase II,” J. Biol. Chem. 1983, 258, 15365. […] Topoisomerase I cleavage values are reported as REC, Relative Effective Concentration (i.e., concentrations relative to compound 5, whose value is arbitrarily assumed as 1) that is able to produce the same cleavage on the plasmid DNA in the presence of human topoisomerase I.

## FC(F)(F)c1nc2cc(-c3nc4cc(-c5nc6cc(-c7ccccc7)ccc6[nH]5)ccc4[nH]3)ccc2[nH]1 [Compound 5, 5-Phenyl-2-[2′(2″-trifluoromethylbenzimidazol-5″yl)benzimidazol-5′-yl]benzimidazole]
  Topoisomerase I cleavage, REC (Relative Effective Concentration): 1
